Values of other authors in patent publication US20180271826A1, “DRY POWDERS OF CANNABINOIDS AND METHODS FOR PREPARING DRY POWDERS” (COLORADO CAN LLC, priority 2017, published 2018).

Columns and labels:
[1] = cannabis resin, 4 years, 4° C. in the dark (Trofin 2012)
[2] = burning of cannabis cigarettes (Elzinga 2015)
[3] = transdermal patch (Stinchcomb 2004)
[4] = plant material, room temperature (20° C.) near a source of light, a little under two years (Fairbarn 1976)
[5] = oral ingestion (Ohlsson 1980)

SMILES | original content degraded [1] [%] | theoretically present amount recovered in total smoke and remaining ash [2] [%] | peak THC concentration [3] [ng/mL] | time of peak THC concentration [3] [h] | original THC content remaining [4] [%] | time of peak THC concentrations after dosing [5] [h]
C=C(C)[C@@H]1CCC(C)=C[C@H]1c1c(O)cc(CCCCC)cc1O [CBD, cannabidiol] | 55.75 | 38.4 | – | – | – | –
CCCCCc1cc(O)c2c(c1)OC(C)(C)[C@@H]1CCC(C)=C[C@@H]21 [THC, Δ9-tetrahydrocannabinol] | 95.77 | 36.9 | 4.4 | 1.4 | 37 | 1 to 5
